From US10774039B2, “Cyclopropene amino acids and methods” (United Kingdom Research and Innovation, priority 2014, dated 2020)

Key:
[1] = biological target: PylRS/tRNACUA pair (Methanosarcina mazei, UniProt Q8PWY1); test: Dual luciferase reporter assay on ovary extract of flies fed amino acid; type: in vivo, D. melanogaster; parameters: expressed in transfected cells; host or cells: transgenic Drosophila melanogaster, ovaries (UAS-PylRS driven by nos-vp16-GAL4); conditions: flies fed 10 mM amino acid
PylRS/tRNACUA pair (Methanosarcina mazei, UniProt Q8PWY1), sequence (Q8PWY1 whole entry, the tested form may be a part): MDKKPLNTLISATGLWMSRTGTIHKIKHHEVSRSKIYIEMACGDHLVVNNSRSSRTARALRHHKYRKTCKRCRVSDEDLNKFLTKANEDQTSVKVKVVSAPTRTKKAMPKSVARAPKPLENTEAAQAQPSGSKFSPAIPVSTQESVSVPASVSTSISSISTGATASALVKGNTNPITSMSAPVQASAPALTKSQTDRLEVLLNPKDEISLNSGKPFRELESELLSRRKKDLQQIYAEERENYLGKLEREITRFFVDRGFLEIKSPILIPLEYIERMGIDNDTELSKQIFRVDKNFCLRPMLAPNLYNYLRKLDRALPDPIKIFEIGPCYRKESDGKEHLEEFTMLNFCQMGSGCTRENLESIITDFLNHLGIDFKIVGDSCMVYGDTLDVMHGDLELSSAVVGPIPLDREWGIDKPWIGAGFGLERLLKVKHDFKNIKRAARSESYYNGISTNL
Method: Dual luciferase assay on ovary extract from 10 female flies expressing Triple-Rep-L in the presence or absence of 10 mM 1 or 10 mM 3. […] The error bars represent the standard deviation of 3 technical replicates from a single biological replicate. FIG. 10B: Site-specific incorporation of 3 (or 1) into GFP_TAG_mCherry-HA in flies expressing PylRS/PyltRNACUA. The full-length protein resulting from unnatural amino acid incorporation is detected by anti-HA western blot. FIG. 10C: Specific labelling of encoded 3 with tetrazine probes. Flies were fed with no amino acid, amino acid 1 (500 flies) or amino acid 3 (100 flies). […] The full-length protein containing the unnatural amino acid was immunoprecipitated from lysed ovaries with anti-GFP beads. The beads were labelled (4g, 4 μM, 200 μL, PBS, RT, 2 h) washed.
Transgenic lines were created by P element insertion using a Drosophila embryo injection service (BestGene Inc.). Lines were generated using the following plasmids: pFT58 (Ala), pFT60 (Ser), pFT62 (Leu) and pFT63 (Met). nos-Gal4-VP16 (Bloomington 4937) and MS1096-Gal4 (Bloomington 8860) were used as Gal4 drivers. All flies were grown at 25° C. on standard Iberian medium. Flies were fed unnatural amino acids by mixing dried yeast with the appropriate concentration of amino acid (usually 10 mM) diluted in dH2O to make a paste. Ovaries were prepared from females that were grown on Iberian fly food supplemented with a yeast paste with or without the amino acid for a minimum of 48 hours. For proteome labelling experiments transgenic male flies of constructs FT58, FT60, FT62 and FT63 were crossed with nos-vp16-GAL4 virgins to generate FT58/nos-vp16-GAL4, FT60/nos-vp16-GAL4, FT62/nos-vp16-GAL4 and FT63/nos-vp16-GAL4 respectively.
Ovaries from 10 females of Triple Rep-L flies recombined with nos-Gal4-VP16 fed 3, 1 or no amino acid were dissected in 100 μl 1× Passive lysis buffer and processed for luciferase assays as previously described^20.

[2] = tested on: PylRS/tRNACUA pair; test: Site-specific incorporation into sfGFP150TAG expressed in E. coli; type: cell-based, Methanosarcina barkeri; conditions: SfGFP gene with amber codon at position 150, E. coli, PylRS/tRNACUA pair
Method: FIG. 2A: The PylRS/RNACUA pair directs efficient, site-specific incorporation of 3 into sfGFP bearing an amber stop codon at position 150.
Expression and purification of sfGFP-3 from E. coli Electrocompetent E. coli DH10B cells were co-transformed with pBK-MbPylRS and psfGFP150TAG PyIT^14, 26. Transformed cells were recovered in S.O.B. (1 mL, supplemented with 0.2% glucose) for 1 h at 37° C. and used to inoculate LB containing 50 μg/mL kanamycin and 25 μg/mL tetracycline (LB-KT). The cells were incubated with shaking overnight at 37° C., 250 r.p.m. 1 mL of overnight culture was used to inoculate 100 mL of LB-KT½, the day culture was then incubated (37° C., 250 r.p.m). At O.D.600˜0.3, the culture was divided equally and supplemented with either 3 (1 mM) or H2O (500 μL) and incubated further (37° C., 250 r.p.m). At O.D.600˜0.6 protein expression was induced by the addition of arabinose (0.2%), after 4 h, the cells were harvested by centrifugation (4000 r.p.m, 20 min) and the pellet frozen until further use.
The frozen bacterial pellet was thawed on ice and resuspended in 2.5 mL lysis buffer (Bugbuster®, Novagen®, 50 μg/mL DNAse 1, Roche inhibitor cocktail and 20 mM imidazole). Cells were incubated (4° C., 30 minutes) then clarified by centrifugation (16000 g, 4° C., 30 minutes). The clarified lysates were transferred to fresh tubes and 100 μL Ni-NTA slurry added. The mixtures was incubated with agitation (4° C., 1 h) and then collected by centrifugation (1000 g, 4° C., 5 min). The beads were resuspended three times in 500 μL wash buffer (10 mM Tris-HCL, 40 mM imidazole, 200 mM NaCl, pH 8) and collected by centrifugation (1000 g, 4° C., 5 min). Finally, the beads were resuspended in 100 μL, elution buffer (10 mM Tris-HCL, 300 mM imidazole, 200 mM NaCl, pH 8), pelleted by centrifugation (1000 g, 4° C., 5 min) and the supernatant collected into fresh tubes. The elution was repeated three times with 100 μL of elution buffer. The purified proteins were analysed by 4-12% SDS-PAGE and LC-MS.

Question: Which “luciferase signal dependent on amino acid addition” value [1] does the source give for `CC(C)(C)OC(=O)NCCCC[C@H](N)C(=O)O` [amino acid 1, N^ε-[(tert-butoxy)carbonyl]-L-lysine, reference compound] here?
Answer: strong luciferase signal

Question: What about the yield of protein [2] of the same molecule?
Answer: 4 mg per litre of culture
